Experimental data taken from patent publication US5589500A, “Substituted 1,1,2-triphenylbutenes and their use in the treatment of cancer” (priority 1992, dated 1996).
Like-named read-outs stand apart in the source and are kept apart here.

Assays:
[1] = test system: MCF-7 human breast cancer cell line; assay: Short term in vitro cytotoxicity against MCF-7 human breast cancer cell line; conditions: MCF7, read-out: Short Term in vitro cytotoxicity MCF-7 IC50 ± SD
Protocol: For some compounds, cytotoxicity against the MCF-7 human breast cancer cell line was determined.

[2] = target: calmodulin dependent cAMP-PDE (Homo sapiens, UniProt P0DP23); assay: Antagonism of calmodulin dependent cAMP-PDE (inhibiting the activation of cyclic AMP phosphodiesterase by calmodulin); assay type: biochemical
[3] = test system: receptor from calf uterine cytosol; conditions: calf uterine cytosol (oestradiol = 100); J. Med. Chem. 32, 2527-2533 (1989); cited from earlier work
rat uterine receptor = conditions: Cancer Research 51, 5851-5858 (1991); cited from earlier work
oestrogen receptor = conditions: rat uterine cytosol competitive binding assay; J. Med. Chem. 25, 167-171 (1982); cited from earlier work
oestrogen receptor (ER) = target: T1, oestrogen receptor (ER) (Rattus norvegicus, UniProt P06211); assay: Relative binding affinity for the oestrogen receptor, rat uterine cytosol competitive binding assay
T1 construct: from tissue; host or cells: rat uterine cytosol
T1 sequence (P06211 1-600): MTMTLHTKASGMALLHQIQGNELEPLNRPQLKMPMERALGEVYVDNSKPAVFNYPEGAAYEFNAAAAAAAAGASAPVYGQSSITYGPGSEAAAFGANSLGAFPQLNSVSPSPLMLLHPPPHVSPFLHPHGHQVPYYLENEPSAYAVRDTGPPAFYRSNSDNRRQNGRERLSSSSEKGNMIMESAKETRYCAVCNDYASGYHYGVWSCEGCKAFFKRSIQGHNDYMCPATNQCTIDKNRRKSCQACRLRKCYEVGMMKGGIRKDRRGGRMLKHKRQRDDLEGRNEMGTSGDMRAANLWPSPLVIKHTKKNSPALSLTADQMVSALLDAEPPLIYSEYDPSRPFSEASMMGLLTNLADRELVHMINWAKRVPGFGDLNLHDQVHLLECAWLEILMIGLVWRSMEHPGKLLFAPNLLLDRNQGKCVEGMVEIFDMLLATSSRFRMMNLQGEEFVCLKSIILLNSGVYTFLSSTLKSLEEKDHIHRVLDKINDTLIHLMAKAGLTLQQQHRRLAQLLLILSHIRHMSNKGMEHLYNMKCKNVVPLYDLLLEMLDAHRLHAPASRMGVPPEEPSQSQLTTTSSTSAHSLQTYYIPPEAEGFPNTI
Protocol: For some compounds, cytotoxicity against the MCF-7 human breast cancer cell line was determined. The test methods used were those described by M. G. Rowlands et al., Biochemical Pharmacology 40, 283-289 (1990). The relative binding offinity (RBA) for the oestrogen receptor (ER) was measured in a rat uterine cystosol competitive binding assay as described by A. E. Wakeling, 1987 (Chapter 7 p219-236 in "STEROID HORMONES--A PRACTICAL APPROACH" Eds B. Green and R. E. Leake, IRL Press Ltd, Oxford, UK).

[4] = ± SD, read-out: Antagonism of calmodulin dependent cAMP-PDE IC50 ± SD

| IC50 [2, 4] | Structure (SMILES) | IC50 [1] | RBA with receptor from calf uterine cytosol [3] | RBA for rat uterine receptor (rat uterine receptor) | binding affinity for the oestrogen receptor compared with pyrrolidino tamoxifen itself (n=2) (oestrogen receptor) | Binding affinity for ER, RBA (oestrogen receptor (ER)) | IC50 [2] |
| --- | --- | --- | --- | --- | --- | --- | --- |
| 1450 ± 80 nM | CC/C(=C(\c1ccc(I)cc1)c1ccc(OCCN2CCCC2)cc1)c1ccccc1 [Idoxifene] | 7270 ± 380 nM | 5 | 12.5 |  |  |  |
|  | CC/C(=C(\c1ccccc1)c1ccc(OCCCN2CCCC2)cc1)c1ccccc1 |  |  |  | lower binding affinity for the oestrogen receptor |  |  |
|  | C[C@]12CC[C@@H]3c4ccc(O)cc4CC[C@H]3[C@@H]1CC[C@@H]2O [17β-estradiol] |  | 100 |  |  |  |  |
| 1110 ± 70 nM | CC/C(=C(\c1ccc(I)cc1)c1ccc(OCCCN2CCCC2)cc1)c1ccccc1 [n = 3, NR^1 = R^2 = pyrrolidino, E-1-(4-(3-(N-pyrrolidino)propoxy)phenyl)-1-(4-iodophenyl)-2-phenyl-1-butene] | 4500 ± 70 nM |  |  |  | 23 |  |
| 2020 ± 170 nM | CC/C(=C(\c1ccc(I)cc1)c1ccc(OCCCN(C)C)cc1)c1ccccc1 [n = 3, R^1 = R^2 = CH3, E-1-(4-(3-(Dimethylamino)propoxy)phenyl)-1-(4-1iodophenyl)-2,phenyl-1-butene] |  |  |  |  |  |  |
| 260 ± 50 nM | CC/C(=C(\c1ccc(I)cc1)c1ccc(OCCCCCCCCN2CCCC2)cc1)c1ccccc1 [n = 8, NR^1 = R^2 = pyrrolidino] |  |  |  |  | 4 |  |
|  | CC/C(=C(\c1ccccc1)c1ccc(OCCN(C)C)cc1)c1ccccc1 [Tamoxifen] | 14000 ± 1000 nM | 1 | 5 |  |  | 6750 ± 1060 nM |
| 2300 ± 420 nM | CC/C(=C(\c1ccc(I)cc1)c1ccc(OCCN(C)C)cc1)c1ccccc1 [4-iodotamoxifen] | 7630 ± 60 nM | 5 | 12.5 |  |  |  |

| Structure (SMILES) | IC50 [2, 4] | IC50 [1] | RBA with receptor from calf uterine cytosol [3] | RBA for rat uterine receptor (rat uterine receptor) | binding affinity for the oestrogen receptor compared with pyrrolidino tamoxifen itself (n=2) (oestrogen receptor) | Binding affinity for ER, RBA (oestrogen receptor (ER)) | IC50 [2] |
| --- | --- | --- | --- | --- | --- | --- | --- |
| CC/C(=C(\c1ccc(I)cc1)c1ccc(OCCCCN2CCCC2)cc1)c1ccccc1 [n = 4, NR^1 = R^2 = pyrrolidino, E-1(4-(4-(N-pyrrolidino)butoxy)phenyl)-1-(4-iodophenyl)-2-phenylbutene] | 1010 ± 80 nM | 3990 ± 600 nM |  |  |  | 9 |  |
| CC/C(=C(\c1ccc(I)cc1)c1ccc(OCCCCN(C)C)cc1)c1ccccc1 [n = 4, R^1 = R^2 = CH3, E-1-(4-(4-(Dimethylamino)butoxy)phenyl)-1-(4-iodophenyl)-2-phenyl-1-butene] | 2250 ± 180 nM |  |  |  |  | 25 |  |
